This is an account of results in paper PMC7587356, “High-Throughput Screening for Inhibitors of the SARS-CoV-2 Protease Using a FRET-Biosensor” (Molecules, 2020).

This test concerns the target SARS-CoV-2 3CLpro (Severe acute respiratory syndrome coronavirus 2, UniProt P0DTD1). Put plainly: biochemical. The class given is biochemical. Set-up: Replicate_1 / Replicate_2 / mean / mean (LOPAC_screen_w_protease): unit not given here. The conditions noted are these: for inhibition at 5 µM: 4 h.
Setting [1] is: sheet LOPAC_screen_w_protease, primary screen with protease, compound at 5 µM, mean of two replicates.
The mark [2] stands for this setting: sheet LOPAC_screen_w_protease, primary screen with protease, compound at 5 µM, replicate 1.
Where [3] appears, read: sheet LOPAC_screen_w_protease, primary screen with protease, compound at 5 µM, replicate 2.
[4] abbreviates: LOPAC1280 primary screen with protease, 5 µM compound, replicate 1, read-out: Replicate_1 (LOPAC_screen_w_protease).
Where [5] appears, read: LOPAC1280 primary screen with protease, 5 µM compound, replicate 2, read-out: Replicate_2 (LOPAC_screen_w_protease).
Where [6] appears, read: LOPAC1280 primary screen with protease, 5 µM compound, mean of the two replicates.
The mark [7] stands for this setting: sheet LOPAC_screen_w_protease, LOPAC1280 primary screen at 5 µM, with protease, mean of the two replicates.
[8] abbreviates: sheet LOPAC_screen_w_protease, LOPAC1280 primary screen at 5 µM, with protease, replicate 1.
Where [9] appears, read: sheet LOPAC_screen_w_protease, LOPAC1280 primary screen at 5 µM, with protease, replicate 2.
Setting [10] is: sheet LOPAC_screen_w_protease, LOPAC1280 primary screen with protease, 5 µM compound, mean of the two replicates, read-out: mean.
Setting [11] is: sheet LOPAC_screen_w_protease, LOPAC1280 primary screen with protease, 5 µM compound, replicate 1, read-out: Replicate_1.
Setting [12] is: sheet LOPAC_screen_w_protease, LOPAC1280 primary screen with protease, 5 µM compound, replicate 2, read-out: Replicate_2.
Where [13] appears, read: LOPAC1280 primary screen with protease, 5 µM compound, mean of two replicates.
Setting [14] is: LOPAC1280 primary screen with protease, 5 µM compound, replicate 1.
Setting [15] is: LOPAC1280 primary screen with protease, 5 µM compound, replicate 2.
The mark [16] stands for this setting: sheet LOPAC_screen_w_protease, primary screen with protease, 5 µM, mean of two replicates.
Where [17] appears, read: sheet LOPAC_screen_w_protease, primary screen with protease, 5 µM, replicate 1.
The mark [18] stands for this setting: sheet LOPAC_screen_w_protease, primary screen with protease, 5 µM, replicate 2.
The mark [19] stands for this setting: sheet LOPAC_screen_w_protease, primary screen with protease, 5 µM, mean of two replicates, read-out: mean.
The mark [20] stands for this setting: sheet LOPAC_screen_w_protease, primary screen with protease, 5 µM, replicate 1, read-out: Replicate_1.
Where [21] appears, read: sheet LOPAC_screen_w_protease, primary screen with protease, 5 µM, replicate 2, read-out: Replicate_2.
[22] abbreviates: sheet LOPAC_screen_w_protease, primary screen at 5 µM, mean of two replicates, read-out: mean (LOPAC screen with protease).
Setting [23] is: sheet LOPAC_screen_w_protease, primary screen at 5 µM, replicate 1, read-out: Replicate_1 (LOPAC screen with protease).
Where [24] appears, read: sheet LOPAC_screen_w_protease, primary screen at 5 µM, replicate 2, read-out: Replicate_2 (LOPAC screen with protease).
Where [25] appears, read: sheet LOPAC_screen_w_protease, primary screen with protease, mean of two replicates.
Setting [26] is: sheet LOPAC_screen_w_protease, primary screen with protease, replicate 1.
Setting [27] is: sheet LOPAC_screen_w_protease, primary screen with protease, replicate 2.

Where a name gives a salt, the structure may show the parent alone. Read-outs that look alike come from different tables or passages of the source.

Compound `C[C@H]1O[C@@H](n2cc(F)c(=O)[nH]c2=O)[C@H](O)[C@@H]1O` [5-fluoro-5'-deoxyuridine] yielded a mean under setting [1] of 2.678. In addition, under setting [2], the Replicate_1 was 3.684. The compound also came in with a Replicate_2 under setting [3] of 1.673.

`Nc1nc(N)c2nc(CNc3ccc(C(=O)N[C@@H](CCC(=O)O)C(=O)O)cc3)cnc2n1` [Aminopterin]: the inhibition at 5 µM by setting is: under setting [4], 2.12%; under setting [5], 1.52%. Under setting [6], the “mean (LOPAC_screen_w_protease)” value is 1.819.

Regarding R(-)-SCH-12679 maleate, the mean under setting [7] is given as 0.5011. The compound further gave a Replicate_1 under setting [8] of 0.9263. The same compound had a Replicate_2 under setting [9] of 0.07597.

On to `CSc1ccc2c(c1)C(N1CCN(C)CC1)Cc1ccccc1S2` (stereo not drawn) [Methiothepin mesylate], for which the inhibition at 5 µM amounted to 4.09% under setting [10], 3.76% under setting [11] and 4.42% under setting [12].

For `N[C@@H](CS(=O)O)C(=O)O` [L-Cysteinesulfinic Acid], under setting [13], the “mean (LOPAC_screen_w_protease)” value is 1.669. The “Replicate_1 (LOPAC_screen_w_protease)” value under setting [14] is recorded as 1.739. Under setting [15], the “Replicate_2 (LOPAC_screen_w_protease)” value is on record as 1.598.

As for `Cl.Fc1ccc(CN(C2=NCCN2)c2c(Cl)cccc2Cl)cc1` [IMID-4F hydrochloride], the mean under setting [16] is -0.6347. This compound had a Replicate_1 under setting [17] of -0.8698. Under setting [18], the Replicate_2 is -0.3997.

As to `OC[C@H]1NC[C@@H](O)[C@@H]1O` [1,4-Dideoxy-1,4-imino-D-arabinitol], the “mean (LOPAC_screen_w_protease)” value under setting [13] is listed as 1.627. In addition, under setting [14], the “Replicate_1 (LOPAC_screen_w_protease)” value came out at 1.388. Further, the “Replicate_2 (LOPAC_screen_w_protease)” value under setting [15] amounted to 1.866.

`C[C@@H]1OC[C@H](C[N+](C)(C)C)O1.[I-]` [(+)-cis-Dioxolane iodide]: for the setting “sheet LOPAC_screen_w_protease, primary screen at 5 µM, mean of two replicates”, the “mean (LOPAC screen with protease)” value was found to be 7.2322. In addition, the “Replicate_1 (LOPAC screen with protease)” value (sheet LOPAC_screen_w_protease, primary screen at 5 µM, replicate 1) was 5.683. The “Replicate_2 (LOPAC screen with protease)” value (sheet LOPAC_screen_w_protease, primary screen at 5 µM, replicate 2) worked out at 8.781.

As for `Cl.c1ccc2c(N3CCNCC3)cccc2c1` [1-(1-Naphthyl)piperazine hydrochloride], the “mean (LOPAC_screen_w_protease)” value under setting [13] was determined as 1.563. For the same compound, the “Replicate_1 (LOPAC_screen_w_protease)” value under setting [14] came out at 4.027. For the same compound, the “Replicate_2 (LOPAC_screen_w_protease)” value under setting [15] is given as -0.9014.

In the case of `C[C@@H]1O[C@@H]1P(=O)(O)O` [Phosphomycin disodium], the inhibition at 5 µM is -0.258% under setting [19], -0.0304% under setting [20] and -0.485% under setting [21].

On to `CN(C(=O)Cc1ccc(Cl)c(Cl)c1)C(CN1CCCC1)c1cccc(OCC(=O)O)c1.Cl` (stereo not drawn) [ICI 204,448 hydrochloride], for which the “mean (LOPAC_screen_w_protease)” value under setting [6] was determined as 1.925. Moreover, the “Replicate_1 (LOPAC_screen_w_protease)” value under setting [14] is 3.897. For the same compound, under setting [15], the “Replicate_2 (LOPAC_screen_w_protease)” value is recorded as -0.04714.

Take `COc1cc(OC)c(C=C2C(O)=Nc3ccccc32)c(OC)c1` [IC 261]: the inhibition at 5 µM was found to be 1.63% under setting [4] and 1.3% under setting [5]. Under setting [13], the “mean (LOPAC_screen_w_protease)” value is on record as 1.465.

With `CCCNC(C)C(=O)Nc1ccccc1C` (stereo not drawn) [Prilocaine hydrochloride], the inhibition at 5 µM is 0.116% under setting [19], 0.518% under setting [20] and -0.285% under setting [21].

In the case of `NC[C@@H]1O[C@H](O[C@H]2[C@@H](O)[C@H](O[C@@H]3[C@@H](O)[C@H](N)C[C@H](N)[C@H]3O[C@H]3O[C@H](CO)[C@@H](O)[C@H](O)[C@H]3N)O[C@@H]2CO)[C@H](N)[C@@H](O)[C@@H]1O` [Paromomycin sulfate], the inhibition at 5 µM under setting [22] amounted to 7.62%, the inhibition at 5 µM under setting [23] stood at 8.4% and the inhibition at 5 µM under setting [24] worked out at 6.83%.

On to `CCCCCCCCCC[Si](C)(C)CCC(=O)NC(Cc1ccc(C)cc1)c1ccccc1` (stereo not drawn) [Sandoz 58-035], for which the mean under setting [7] was 0.7639. For the same compound, the Replicate_1 under setting [8] is listed as 1.25. For the same compound, the Replicate_2 under setting [9] was found to be 0.2774.

With `Cl.NCCNC(=O)c1ncsc1-c1cccc(F)c1` [Ro 41-1049 hydrochloride], the mean under setting [16] is on record as -0.1611. This compound also returned a Replicate_1 under setting [17] of 1.896. Also, under setting [18], the Replicate_2 was -2.218.

Regarding `COCC(=O)O[C@]1(CCN(C)CCCc2nc3ccccc3[nH]2)CCc2cc(F)ccc2[C@@H]1C(C)C` [Mibefradil dihydrochloride], the inhibition at 5 µM is, setting by setting: under setting [10], 4.42%; under setting [11], 3.3%; under setting [12], 5.54%.

`CCOC(=O)N1CCC(=C2c3ccc(Cl)cc3CCc3cccnc32)CC1` [Loratadine]: the inhibition at 5 µM was 0.729% (sheet LOPAC_screen_w_protease, LOPAC1280 primary screen at 5 µM, with protease, mean of the two replicates, read-out: mean); -0.189% (sheet LOPAC_screen_w_protease, LOPAC1280 primary screen at 5 µM, with protease, replicate 1, read-out: Replicate_1); 1.65% (sheet LOPAC_screen_w_protease, LOPAC1280 primary screen at 5 µM, with protease, replicate 2, read-out: Replicate_2).

In the case of `O=C(Nc1ccccc1)c1cc([N+](=O)[O-])ccc1Cl` [GW9662], the “mean (LOPAC_screen_w_protease)” value under setting [13] amounted to 1.573. Besides, the “Replicate_1 (LOPAC_screen_w_protease)” value under setting [14] came out at 2.013. Moreover, under setting [15], the “Replicate_2 (LOPAC_screen_w_protease)” value was found to be 1.1319.

Consider `Cc1ccc([N+](=O)[O-])cc1S(=O)(=O)N(C)C` [BRL 50481], for which, under setting [13], the “mean (LOPAC_screen_w_protease)” value turned out to be 1.647. The “Replicate_1 (LOPAC_screen_w_protease)” value under setting [14] turned out to be 1.025. Further, the “Replicate_2 (LOPAC_screen_w_protease)” value under setting [15] was determined as 2.268.

`Cl.N[C@@H](CCl)C(=O)O` [beta-Chloro-L-alanine hydrochloride] came in with a mean under setting [25] of 2.368. This compound also yielded a Replicate_1 under setting [26] of 2.376. Also, the Replicate_2 under setting [27] is recorded as 2.361.

With `CC(C)(C)c1onc(OCP(=O)(O)O)c1CC(N)C(=O)O` (stereo not drawn) [ATPO], the mean under setting [1] is on record as 3.0772. For the same compound, the Replicate_1 under setting [2] is 4.002. Further, under setting [3], the Replicate_2 is 2.152.

With `COc1ccccc1N1CCN(CCCCNC(=O)c2ccc3ccccc3c2)CC1` [BP 897], the inhibition at 5 µM reads like this: under setting [4], 0.668%; under setting [5], 1.98%. Moreover, the “mean (LOPAC_screen_w_protease)” value under setting [13] was 1.323.

On to `O=C(O)c1cc(=O)c2ccccc2[nH]1` [Kynurenic acid], for which the inhibition at 5 µM runs as follows: under setting [4], 3.13%; under setting [5], 0.793%. Also, the “mean (LOPAC_screen_w_protease)” value under setting [6] is given as 1.961.

As to `CS(=O)(=O)O.Cc1c(C(=O)c2cccc3ccccc23)c2cccc3c2n1[C@H](CN1CCOCC1)CO3` [(R)-(+)-WIN 55,212-2 mesylate], the mean under setting [16] is -0.1611. This compound returned a Replicate_1 under setting [17] of -0.3938. In addition, under setting [18], the Replicate_2 is listed as 0.07161.

For the compound `Clc1ccc(C(c2ccc(Cl)cc2)n2cc[n+](CC(OCc3ccc(Cl)cc3Cl)c3ccc(Cl)cc3Cl)c2)cc1` (stereo not drawn) [Calmidazolium chloride], the inhibition at 5 µM by setting is: under setting [22], 9.31%; under setting [23], 8.14%; under setting [24], 10.5%.

On to `OC[C@H]1O[C@@H](n2cnc3c(NC4CCCCC4)ncnc32)[C@H](O)[C@@H]1O` [N6-Cyclohexyladenosine], for which the “mean (LOPAC_screen_w_protease)” value under setting [13] was 1.471. Further, the “Replicate_1 (LOPAC_screen_w_protease)” value under setting [14] is 2.337. The “Replicate_2 (LOPAC_screen_w_protease)” value under setting [15] is listed as 0.606.

Consider `CCCC(=O)NCCc1c2n(c3ccc(OC)cc13)CCCc1ccccc1-2` [K 185], for which the mean under setting [25] amounted to 2.196. Under setting [26], the Replicate_1 was found to be 2.886. Under setting [27], this compound showed a Replicate_2 of 1.507.

Take `CC1COc2c(N3CCN(C)CC3)c(F)cc3c(=O)c(C(=O)O)cn1c23` (stereo not drawn) [Ofloxacin]: the inhibition at 5 µM reads like this: under setting [10], 6.37%; under setting [11], 5.61%; under setting [12], 7.14%.

As to `Br.COc1ccccc1N1CCN(CCCCN2C(=O)c3ccccc3C2=O)CC1` [NAN-190 hydrobromide], the “mean (LOPAC_screen_w_protease)” value under setting [6] is 1.999. For the same compound, the “Replicate_1 (LOPAC_screen_w_protease)” value under setting [14] was determined as 4.031. Moreover, under setting [15], the “Replicate_2 (LOPAC_screen_w_protease)” value is -0.03323.

`CC[C@@]1(O)C(=O)OCc2c1cc1n(c2=O)Cc2cc3ccccc3nc2-1` [(S)-(+)-Camptothecin] returned a mean (sheet LOPAC_screen_w_protease, primary screen of LOPAC1280 at 5 µM with protease, mean of the two replicates) of 3.282. Further, the Replicate_1 (sheet LOPAC_screen_w_protease, primary screen of LOPAC1280 at 5 µM with protease, replicate 1) is 4.077. Under “sheet LOPAC_screen_w_protease, primary screen of LOPAC1280 at 5 µM with protease, replicate 2”, this compound returned a Replicate_2 of 2.488.
